Results taken from patent US20250197388A1, “COMPOUNDS, PHARMACEUTICAL COMPOSITIONS AND METHODS FOR TREATING INFLAMMATORY BOWEL DISEASE” (FLAGSHIP PIONEERING INNOVATIONS VI, LLC, priority 2022, published 2025).

What was measured:
[1] = Compound interconversion monitored by 1H-NMR in neutral aqueous buffer; format: physicochemical; conditions: 37° C. in the neutral aqueous buffer
Method: This examples provide the kinetics of compounds A-2 and A-3. More specifically, A-6 is a mixture of compounds A-2 and A-3 and interconvert in solutions.
In this example, A-6 was combined with […] of Na3PO4, DCl, and D2O at a pH of 7-7.5. This solution was then monitored using 1H-NMR at 37° C.
Interconversion between compounds A-2 and A-3 was seen and monitored for 5 days. See, Table 1.

[2] = tested on: Zymosan-induced production of IL-12p40 in monocyte-derived dendritic cells; assay: Monocyte derived DC (MoDC) assay, Zymosan-induced IL-12p40 (Luminex/ELISA); format: cell-based, human
Excerpt: Monocyte derived DC (MoDC) were differentiated from healthy human donor derived CD14+ monocytes. Commercially available freshly prepared Leukopaks were obtained from healthy blood donor and kept refrigerated on ice before spin centrifuged and the pelleted cells are rinsed and resuspended with MACS buffer (Miltenyi Biotec). Next, CD14+ monocytes were purified using MultiMACS™ Cell24 Separator-Plus instrumentation and reagents according to the manufacturer (Miltenyi Biotec) instructions. The resulting purified CD14^+ cell fraction was washed, enumerated, and subsequently cryopreserved for later use. At the experiment first day cryopreserved CD14′ cells were thawed, rinsed with culture media, and then resuspended in culture media principally composed of RPMI (Invitrogen) supplemented with 10% v/v heat inactivated FBS. For generation of MoDC, these CD14^+ cells were enumerated and seeded into 75 cm^2 tissue culture flasks in 30 mL of culture media supplemented with GM-CSF (40-100 ng/mL) and IL-4 (25 ng/mL). Every other day, half of the culture media was replaced with fresh media (containing the same cytokine supplementation) and after 6-7 days of culture, fully differentiated and matured MoDC were obtained as confirmed by conventional Immuno-phenotype markers (levels of expression or absence of surface CD80, CD83, CD86, CD209, HLA-DR, CD14 & CD64) that were verified by flow-cytometry. Fully differentiated (mature) MoDCs, were seeded into 96 flat-well plates and incubated with a various concentration of the compound described herein, or with control solution (DMSO), or with the pharmacologic inhibitors Cyclosporin-A (CsA) and BAY 61-3606 (which is a known inhibitor of Syk kinase) for 6 hours. Next, the MoDC culture well were added with Dectin-1(CLEC7a1)-ligand (Zymosan at 5 μg/mL), or the Toll-like receptor agonist R848, and further incubated for 18-20 hours. After incubation concluded, culture supernatants were collected, and the levels of inflammatory cytokines and chemokines was measured in a triplicate setting for each condition by Luminex® multiplex assay (FIG. 2) or by ELISA (FIG. 3).

Dectin-1b = biological target: T1, Dectin-1b (Homo sapiens, UniProt Q9BXN2); assay: Dectin-1 assay, HEK-Blue Dectin-1b SEAP reporter cells stimulated with beta-glucan peptide (BGP); format: cell-based; conditions: HEK-Blue Dectin-1b cells; compounds at 1, 10 or 30 μM for 6 hours, then BGP 30 μg/mL 16-18 hours; SEAP adjusted by cell viability
T1 construct: host or cells: HEK-Blue Dectin-1b reporter cells (HEK293-derived)
T1 sequence (Q9BXN2 1-201 isoform Q9BXN2-2): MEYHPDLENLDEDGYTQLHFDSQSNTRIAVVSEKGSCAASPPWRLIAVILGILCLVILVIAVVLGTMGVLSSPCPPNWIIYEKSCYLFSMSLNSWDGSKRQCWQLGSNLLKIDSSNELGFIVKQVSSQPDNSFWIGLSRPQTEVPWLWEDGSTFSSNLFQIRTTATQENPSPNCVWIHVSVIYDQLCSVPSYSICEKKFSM
Method: Compounds described herein are added to mammalian cells for bioactivity assessment. The HEK-Blue Dectin-1b cells line (InVivoGen) releases a reporter protein (secreted embryonic alkaline phosphatase, SEAP) to the culture supernatant in response to Dectin-1 activation. HEK-Blue reporter cells were grown in DMEM culture media with 10% decomplemented fetal calf serum (InvivoGen, 1% Pen/Strep antibiotic (InvivoGen), 0.2% Normocin antibiotic (InvivoGen). On the day prior to the assay, cells were seeded in a 96 flat-bottom well plate at 50,000 cells/well and further incubated for 20 hours. On the day of the assay cells were incubated with 1 μM, 10 μM or 30 μM of the compounds described herein or with 1 μM of the SYKi IV Dectin-1b Inhibitor (Millipore) or with DMSO (vehicle control) for 6 hours, followed by the addition of beta-glucan peptide (BGP, a Dectin-1 ligand at 30 μg/mL) and incubation for 16-18 hours. After incubation was concluded, the cultures supernatants were collected and Dectin-1 related activity was assessed by measurement of the SEAP-reporter protein presence, using Quanti-Blue assay (Invivogen) and these values were adjusted by the Cell Viability levels that was assessed using the Cell-Titer-Glo2 Reagent (Promega).
Results represent cell number adjusted SEAP levels in a triplicate setting for each condition and cell numbers and viability corrections reflected less than 5% corrections. See, e.g., FIG. 1 for compound A-3.

## CN1[C@@H](C(=O)O)CS[C@@H]1[C@@H]1CSC(c2ccccc2O)=N1 (single isomer, unassigned) [Compound A-2]
[1]
  time to nearly reach interconversion equilibrium: about 3 hours
[2]; MoDC from healthy human donors 1, 2 and 3, 15.5 nM to 1 μM (FIGS. 6A-6C)
  inhibition of Zymosan-induced production of IL-12p40: inhibition
[2]; donors 1, 2 and 3, the highest concentration tested
  concentration of maximal inhibition of Zymosan-induced IL-12p40: 1 µM
Dectin-1b
  Activity: <30 µM
